From patent publication US4471131A, “Novel silyl esters of N-phosphonomethylglycine” (Monsanto Company, priority 1983, dated 1984)

How the values were obtained:
Assay in all cases: post-emergence herbicidal activity, greenhouse
Assay type in all cases: in vivo
[1] = test system: Cocklebur
Outline: (§1)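 Injury versus control pans was recorded at about 2 and 4 weeks post-treatment. Treatment was post-emergence: an atomizer spray holding roughly 0.4% by weight emulsifier and enough candidate chemical for the tabulated rates, applied to two-to-three-week-old plants raised in top-soil pans.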

[2] = test system: Johnsongrass; conditions: Table II
Outline: as §1

[3] = test system: Yellow Nutsedge; conditions: Table II
Outline: (§2)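 Candidate chemical is applied by atomizer at the indicated rates to emerged plants of 2–3 weeks, spray containing about 0.4 wt% emulsifier. Effects are judged as injury against unsprayed control pans, approximately two and four weeks post-application.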

[4] = test system: Quackgrass; conditions: Table II
Outline: as §2

[5] = test system: Panicum Spp; conditions: Table III, formulated in anhydrous tetrahydrofuran
Outline: as §1

[6] = test system: Barnyardgrass
Outline: as §1

[7] = test system: Canada Thistle; conditions: Table II
Outline: as §1

[8] = test system: Large Crabgrass; conditions: Table III, formulated in anhydrous tetrahydrofuran
Outline: as §1

[9] = test system: Hemp Sesbania; conditions: Table III, formulated in anhydrous tetrahydrofuran
Outline: as §1

[10] = test system: Downy Brome
Outline: as §1

[11] = test system: Morningglory
Outline: as §1

[12] = test system: Sugar Beet; conditions: Table III, formulated in anhydrous tetrahydrofuran
Outline: as §1

[13] = test system: Soybean; conditions: Table III, formulated in anhydrous tetrahydrofuran
Outline: as §1

[14] = test system: Pennsylvania Smartweed
Outline: as §1

[15] = test system: Rice; conditions: Table III, formulated in anhydrous tetrahydrofuran
Outline: as §1

[16] = test system: Wild Buckwheat; conditions: Table III, formulated in anhydrous tetrahydrofuran
Outline: as §1

[17] = test system: Common Lambsquarters
Outline: as §1

[18] = test system: Velvetleaf
Outline: as §1

[19] = Table II, 2 WAT, 5.6 kg/h, formulated in anhydrous tetrahydrofuran
[20] = Table II, 2 WAT, 11.2 kg/h, formulated in anhydrous tetrahydrofuran
[21] = Table II, 4 WAT, 11.2 kg/h, formulated in anhydrous tetrahydrofuran
[22] = Table III, 2 WAT, 1.1 kg/h, formulated in anhydrous tetrahydrofuran
[23] = Table III, 2 WAT, 5.6 kg/h, formulated in anhydrous tetrahydrofuran
[24] = Table III, 2 WAT, .28 kg/h, formulated in anhydrous tetrahydrofuran
[25] = Table III, 4 WAT, 5.6 kg/h, formulated in anhydrous tetrahydrofuran
[26] = 2 WAT, 5.6 kg/h, formulated in anhydrous tetrahydrofuran
[27] = 2 WAT, 11.2 kg/h, formulated in anhydrous tetrahydrofuran
[28] = 4 WAT, 11.2 kg/h, formulated in anhydrous tetrahydrofuran

CC(C)(C)[Si](OP(=O)(O)CNCC(=O)O)(c1ccccc1)c1ccccc1 [Ex. 5, Glycine, N-((([(1,1-Dimethylethyl)Diphenylsilyl]oxy)-Hydroxyphosphinyl)-Methyl)-,]
2 (50-74% inhibition): Plant Response Index (B) ([1]; Table II, 2 WAT, 5.6 kg/h) | Plant Response Index (B) ([1]; Table II, 2 WAT, 11.2 kg/h) | Plant Response Index (B) ([1]; Table II, 4 WAT, 11.2 kg/h) | Plant Response Index (I) ([2]; 4 WAT, 11.2 kg/h) | Plant Response Index (G) ([3]; 4 WAT, 11.2 kg/h) | Plant Response Index (K) ([6]; Table II, 4 WAT, 11.2 kg/h) | Plant Response Index (F) ([14]; Table II, 2 WAT, 11.2 kg/h) | Plant Response Index (F) ([14]; Table II, 4 WAT, 11.2 kg/h) | Plant Response Index (E) ([17]; Table II, 4 WAT, 11.2 kg/h)
0 (0-24% inhibition): Plant Response Index (B) [1, 23] | Plant Response Index (B) [1, 25] | Plant Response Index (I) ([2]; 2 WAT, 5.6 kg/h) | Plant Response Index (I) [2, 26] | Plant Response Index (I) [2, 27] | Plant Response Index (I) [2, 28] | Plant Response Index (G) ([3]; 2 WAT, 5.6 kg/h) | Plant Response Index (G) [3, 26] | Plant Response Index (G) [3, 27] | Plant Response Index (G) [3, 28] | Plant Response Index (H) ([4]; 2 WAT, 5.6 kg/h) | Plant Response Index (H) [4, 26] | Plant Response Index (H) ([4]; 2 WAT, 11.2 kg/h) | Plant Response Index (H) [4, 27] | Plant Response Index (H) ([4]; 4 WAT, 5.6 kg/h) | Plant Response Index (H) [4, 28] | Plant Response Index (S) ([5]; 2 WAT, 1.1 kg/h) | Plant Response Index (S) ([5]; 2 WAT, 5.6 kg/h) | Plant Response Index (S) ([5]; 2 WAT, .28 kg/h) | Plant Response Index (S) ([5]; 4 WAT, 5.6 kg/h) | Plant Response Index (K) ([6]; Table II, 2 WAT, 5.6 kg/h) | Plant Response Index (K) [6, 19] | Plant Response Index (K) ([6]; Table II, 4 WAT, 5.6 kg/h) | Plant Response Index (K) [6, 21] | Plant Response Index (K) [6, 22] | Plant Response Index (K) [6, 23] | Plant Response Index (K) [6, 24] | Plant Response Index (K) [6, 25] | Plant Response Index (A) [7, 26] | Plant Response Index (A) [7, 27] | Plant Response Index (T) ([8]; 2 WAT, 1.1 kg/h) | Plant Response Index (T) ([8]; 2 WAT, .28 kg/h) | Plant Response Index (R) ([9]; 2 WAT, 1.1 kg/h) | Plant Response Index (R) ([9]; 2 WAT, 5.6 kg/h) | Plant Response Index (R) ([9]; 2 WAT, .28 kg/h) | Plant Response Index (R) ([9]; 4 WAT, 5.6 kg/h) | Plant Response Index (J) ([10]; Table II, 2 WAT, 5.6 kg/h) | Plant Response Index (J) [10, 19] | Plant Response Index (J) ([10]; Table II, 2 WAT, 11.2 kg/h) | Plant Response Index (J) [10, 20] | Plant Response Index (J) ([10]; Table II, 4 WAT, 5.6 kg/h) | Plant Response Index (J) ([10]; Table II, 4 WAT, 11.2 kg/h) | Plant Response Index (J) [10, 21] | Plant Response Index (J) [10, 22] | Plant Response Index (J) [10, 23] | Plant Response Index (J) [10, 24] | Plant Response Index (J) [10, 25] | Plant Response Index (D) [11, 22] | Plant Response Index (D) [11, 24] | Plant Response Index (D) [11, 25] | Plant Response Index (M) ([12]; 2 WAT, 1.1 kg/h) | Plant Response Index (M) ([12]; 2 WAT, 5.6 kg/h) | Plant Response Index (M) ([12]; 2 WAT, .28 kg/h) | Plant Response Index (M) ([12]; 4 WAT, 5.6 kg/h) | Plant Response Index (L) ([13]; 4 WAT, 5.6 kg/h) | Plant Response Index (F) ([14]; Table II, 2 WAT, 5.6 kg/h) | Plant Response Index (F) [14, 19] | Plant Response Index (F) [14, 20] | Plant Response Index (F) ([14]; Table II, 4 WAT, 5.6 kg/h) | Plant Response Index (F) [14, 21] | Plant Response Index (F) [14, 22] | Plant Response Index (F) [14, 24] | Plant Response Index (O) ([15]; 2 WAT, 1.1 kg/h) | Plant Response Index (O) ([15]; 2 WAT, 5.6 kg/h) | Plant Response Index (O) ([15]; 2 WAT, .28 kg/h) | Plant Response Index (O) ([15]; 4 WAT, 5.6 kg/h) | Plant Response Index (Q) ([16]; 2 WAT, 1.1 kg/h) | Plant Response Index (Q) ([16]; 2 WAT, .28 kg/h) | Plant Response Index (Q) ([16]; 4 WAT, 5.6 kg/h) | Plant Response Index (E) [17, 19] | Plant Response Index (E) [17, 20] | Plant Response Index (E) ([17]; Table II, 4 WAT, 5.6 kg/h) | Plant Response Index (E) [17, 21] | Plant Response Index (E) [17, 22] | Plant Response Index (E) [17, 23] | Plant Response Index (E) [17, 24] | Plant Response Index (C) ([18]; Table II, 2 WAT, 5.6 kg/h) | Plant Response Index (C) [18, 19] | Plant Response Index (C) [18, 20] | Plant Response Index (C) ([18]; Table II, 4 WAT, 5.6 kg/h) | Plant Response Index (C) ([18]; Table II, 4 WAT, 11.2 kg/h) | Plant Response Index (C) [18, 21] | Plant Response Index (C) [18, 22] | Plant Response Index (C) [18, 23] | Plant Response Index (C) [18, 24] | Plant Response Index (C) [18, 25]
1 (25-49% inhibition): Plant Response Index (B) [1, 19] | Plant Response Index (B) [1, 20] | Plant Response Index (B) ([1]; Table II, 4 WAT, 5.6 kg/h) | Plant Response Index (B) [1, 21] | Plant Response Index (B) [1, 22] | Plant Response Index (B) [1, 24] | Plant Response Index (I) ([2]; 2 WAT, 11.2 kg/h) | Plant Response Index (I) ([2]; 4 WAT, 5.6 kg/h) | Plant Response Index (G) ([3]; 2 WAT, 11.2 kg/h) | Plant Response Index (G) ([3]; 4 WAT, 5.6 kg/h) | Plant Response Index (H) ([4]; 4 WAT, 11.2 kg/h) | Plant Response Index (K) ([6]; Table II, 2 WAT, 11.2 kg/h) | Plant Response Index (K) [6, 20] | Plant Response Index (A) ([7]; 2 WAT, 5.6 kg/h) | Plant Response Index (A) ([7]; 2 WAT, 11.2 kg/h) | Plant Response Index (A) ([7]; 4 WAT, 5.6 kg/h) | Plant Response Index (A) ([7]; 4 WAT, 11.2 kg/h) | Plant Response Index (A) [7, 28] | Plant Response Index (T) ([8]; 2 WAT, 5.6 kg/h) | Plant Response Index (T) ([8]; 4 WAT, 5.6 kg/h) | Plant Response Index (D) ([11]; Table II, 2 WAT, 5.6 kg/h) | Plant Response Index (D) [11, 19] | Plant Response Index (D) ([11]; Table II, 2 WAT, 11.2 kg/h) | Plant Response Index (D) [11, 20] | Plant Response Index (D) ([11]; Table II, 4 WAT, 5.6 kg/h) | Plant Response Index (D) ([11]; Table II, 4 WAT, 11.2 kg/h) | Plant Response Index (D) [11, 21] | Plant Response Index (D) [11, 23] | Plant Response Index (L) ([13]; 2 WAT, 1.1 kg/h) | Plant Response Index (L) ([13]; 2 WAT, 5.6 kg/h) | Plant Response Index (L) ([13]; 2 WAT, .28 kg/h) | Plant Response Index (F) [14, 23] | Plant Response Index (F) [14, 25] | Plant Response Index (Q) ([16]; 2 WAT, 5.6 kg/h) | Plant Response Index (E) ([17]; Table II, 2 WAT, 5.6 kg/h) | Plant Response Index (E) ([17]; Table II, 2 WAT, 11.2 kg/h) | Plant Response Index (E) [17, 25] | Plant Response Index (C) ([18]; Table II, 2 WAT, 11.2 kg/h)
